The values below come from ChEMBL document CHEMBL4602709 (ACS Med Chem Lett, 2020).

For experiment [1], the target named is Platelet-derived growth factor receptor alpha (Homo sapiens, UniProt P16234). Briefly: Inhibition of PDGFRalpha (unknown origin) assessed as residual activity at 10 uM incubated for 5 mins in presence of [gamma-33ATP] by scintillation counting based radiometry assay relative to control.
Experiment [2] addresses T1, Mitogen-activated protein kinase kinase kinase kinase 3 (Homo sapiens) (UniProt Q8IVH8).
T1 sequence (whole entry): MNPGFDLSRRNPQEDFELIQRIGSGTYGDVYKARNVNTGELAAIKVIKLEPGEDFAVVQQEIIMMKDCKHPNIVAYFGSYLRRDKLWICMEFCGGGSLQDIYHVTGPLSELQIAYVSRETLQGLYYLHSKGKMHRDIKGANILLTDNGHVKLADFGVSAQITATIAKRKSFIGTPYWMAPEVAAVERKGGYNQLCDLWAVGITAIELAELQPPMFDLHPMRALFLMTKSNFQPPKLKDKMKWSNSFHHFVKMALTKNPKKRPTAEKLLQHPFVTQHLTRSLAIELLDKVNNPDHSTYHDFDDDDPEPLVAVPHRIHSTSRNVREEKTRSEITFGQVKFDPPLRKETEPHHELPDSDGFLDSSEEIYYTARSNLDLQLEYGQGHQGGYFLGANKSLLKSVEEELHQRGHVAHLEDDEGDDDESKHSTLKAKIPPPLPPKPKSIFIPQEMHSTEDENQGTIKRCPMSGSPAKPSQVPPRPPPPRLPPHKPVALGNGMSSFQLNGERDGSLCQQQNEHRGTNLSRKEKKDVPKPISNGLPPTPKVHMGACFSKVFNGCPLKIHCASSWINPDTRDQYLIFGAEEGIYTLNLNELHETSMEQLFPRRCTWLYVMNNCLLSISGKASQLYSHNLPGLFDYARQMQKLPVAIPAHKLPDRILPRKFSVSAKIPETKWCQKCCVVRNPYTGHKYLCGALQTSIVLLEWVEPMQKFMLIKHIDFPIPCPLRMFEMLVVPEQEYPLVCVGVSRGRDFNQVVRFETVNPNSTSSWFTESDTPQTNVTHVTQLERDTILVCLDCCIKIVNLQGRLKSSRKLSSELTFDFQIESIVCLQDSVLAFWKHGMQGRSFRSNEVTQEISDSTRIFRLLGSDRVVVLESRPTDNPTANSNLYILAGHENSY
Briefly: Inhibition of MAP4K3 (unknown origin) assessed as residual activity at 10 uM incubated for 5 mins in presence of [gamma-33ATP] by scintillation counting based radiometry assay relative to control.

Experiment [3] addresses T2, Discoidin domain-containing receptor 2 (Homo sapiens) (UniProt Q16832).
T2 sequence (whole entry): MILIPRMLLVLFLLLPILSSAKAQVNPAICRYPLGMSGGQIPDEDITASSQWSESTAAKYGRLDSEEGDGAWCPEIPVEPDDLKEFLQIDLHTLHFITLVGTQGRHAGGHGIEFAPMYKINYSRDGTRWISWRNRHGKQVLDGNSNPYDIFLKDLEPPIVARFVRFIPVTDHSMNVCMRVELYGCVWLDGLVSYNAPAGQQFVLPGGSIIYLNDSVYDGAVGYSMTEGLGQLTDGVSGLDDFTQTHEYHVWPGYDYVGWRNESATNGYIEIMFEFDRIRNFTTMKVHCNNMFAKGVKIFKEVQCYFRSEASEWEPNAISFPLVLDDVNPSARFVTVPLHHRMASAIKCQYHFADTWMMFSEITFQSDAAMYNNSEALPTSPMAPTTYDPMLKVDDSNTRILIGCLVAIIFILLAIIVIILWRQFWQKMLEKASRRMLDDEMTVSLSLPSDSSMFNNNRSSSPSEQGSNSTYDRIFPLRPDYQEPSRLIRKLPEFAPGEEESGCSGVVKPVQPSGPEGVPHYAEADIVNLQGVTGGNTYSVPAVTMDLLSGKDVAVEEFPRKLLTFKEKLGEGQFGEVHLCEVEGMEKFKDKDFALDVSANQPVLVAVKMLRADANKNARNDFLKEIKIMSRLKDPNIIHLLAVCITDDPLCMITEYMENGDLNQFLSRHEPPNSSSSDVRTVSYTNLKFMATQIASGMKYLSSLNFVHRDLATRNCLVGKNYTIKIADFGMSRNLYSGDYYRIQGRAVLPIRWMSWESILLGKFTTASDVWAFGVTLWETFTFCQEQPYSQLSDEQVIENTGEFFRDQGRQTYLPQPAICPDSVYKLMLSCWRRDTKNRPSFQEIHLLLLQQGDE
In words: Inhibition of DDR2 (unknown origin) assessed as residual activity at 10 uM incubated for 5 mins in presence of [gamma-33ATP] by scintillation counting based radiometry assay relative to control.

The target in experiment [4] is T3, Ephrin type-B receptor 3 (Homo sapiens) (UniProt P54753).
T3 sequence (whole entry): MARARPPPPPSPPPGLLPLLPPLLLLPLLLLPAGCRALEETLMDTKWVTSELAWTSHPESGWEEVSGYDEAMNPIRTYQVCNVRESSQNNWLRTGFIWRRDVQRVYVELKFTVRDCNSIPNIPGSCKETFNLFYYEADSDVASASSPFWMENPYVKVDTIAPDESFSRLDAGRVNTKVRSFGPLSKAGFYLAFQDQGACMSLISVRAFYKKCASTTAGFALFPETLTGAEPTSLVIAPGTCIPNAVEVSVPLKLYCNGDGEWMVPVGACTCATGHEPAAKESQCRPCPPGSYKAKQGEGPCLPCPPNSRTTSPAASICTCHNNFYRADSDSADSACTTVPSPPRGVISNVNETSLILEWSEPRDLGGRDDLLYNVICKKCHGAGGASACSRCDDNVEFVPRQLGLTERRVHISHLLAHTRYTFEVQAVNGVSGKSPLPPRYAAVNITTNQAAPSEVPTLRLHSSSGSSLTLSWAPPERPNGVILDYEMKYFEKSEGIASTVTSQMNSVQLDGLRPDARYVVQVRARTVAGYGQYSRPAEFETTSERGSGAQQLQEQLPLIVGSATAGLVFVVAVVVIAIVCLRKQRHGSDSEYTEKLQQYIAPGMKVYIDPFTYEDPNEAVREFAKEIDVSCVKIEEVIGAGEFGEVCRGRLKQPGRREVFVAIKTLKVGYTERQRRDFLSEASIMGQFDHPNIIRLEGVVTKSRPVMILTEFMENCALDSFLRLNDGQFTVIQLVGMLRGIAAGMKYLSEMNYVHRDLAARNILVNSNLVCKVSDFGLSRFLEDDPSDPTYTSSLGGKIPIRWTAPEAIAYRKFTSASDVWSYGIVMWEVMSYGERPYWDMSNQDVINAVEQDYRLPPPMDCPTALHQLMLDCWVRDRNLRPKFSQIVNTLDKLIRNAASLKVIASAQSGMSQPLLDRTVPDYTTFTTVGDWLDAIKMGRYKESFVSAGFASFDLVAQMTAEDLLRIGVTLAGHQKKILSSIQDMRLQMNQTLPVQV
In words: Inhibition of EPHB3 (unknown origin) assessed as residual activity at 10 uM incubated for 5 mins in presence of [gamma-33ATP] by scintillation counting based radiometry assay relative to control.

Another experiment is filed under the species Homo sapiens. In words: Inhibition of VEGFR (unknown origin) assessed as residual activity at 10 uM incubated for 5 mins in presence of [gamma-33ATP] by scintillation counting based radiometry assay relative to control.

Sequence of Platelet-derived growth factor receptor alpha (P16234 whole entry): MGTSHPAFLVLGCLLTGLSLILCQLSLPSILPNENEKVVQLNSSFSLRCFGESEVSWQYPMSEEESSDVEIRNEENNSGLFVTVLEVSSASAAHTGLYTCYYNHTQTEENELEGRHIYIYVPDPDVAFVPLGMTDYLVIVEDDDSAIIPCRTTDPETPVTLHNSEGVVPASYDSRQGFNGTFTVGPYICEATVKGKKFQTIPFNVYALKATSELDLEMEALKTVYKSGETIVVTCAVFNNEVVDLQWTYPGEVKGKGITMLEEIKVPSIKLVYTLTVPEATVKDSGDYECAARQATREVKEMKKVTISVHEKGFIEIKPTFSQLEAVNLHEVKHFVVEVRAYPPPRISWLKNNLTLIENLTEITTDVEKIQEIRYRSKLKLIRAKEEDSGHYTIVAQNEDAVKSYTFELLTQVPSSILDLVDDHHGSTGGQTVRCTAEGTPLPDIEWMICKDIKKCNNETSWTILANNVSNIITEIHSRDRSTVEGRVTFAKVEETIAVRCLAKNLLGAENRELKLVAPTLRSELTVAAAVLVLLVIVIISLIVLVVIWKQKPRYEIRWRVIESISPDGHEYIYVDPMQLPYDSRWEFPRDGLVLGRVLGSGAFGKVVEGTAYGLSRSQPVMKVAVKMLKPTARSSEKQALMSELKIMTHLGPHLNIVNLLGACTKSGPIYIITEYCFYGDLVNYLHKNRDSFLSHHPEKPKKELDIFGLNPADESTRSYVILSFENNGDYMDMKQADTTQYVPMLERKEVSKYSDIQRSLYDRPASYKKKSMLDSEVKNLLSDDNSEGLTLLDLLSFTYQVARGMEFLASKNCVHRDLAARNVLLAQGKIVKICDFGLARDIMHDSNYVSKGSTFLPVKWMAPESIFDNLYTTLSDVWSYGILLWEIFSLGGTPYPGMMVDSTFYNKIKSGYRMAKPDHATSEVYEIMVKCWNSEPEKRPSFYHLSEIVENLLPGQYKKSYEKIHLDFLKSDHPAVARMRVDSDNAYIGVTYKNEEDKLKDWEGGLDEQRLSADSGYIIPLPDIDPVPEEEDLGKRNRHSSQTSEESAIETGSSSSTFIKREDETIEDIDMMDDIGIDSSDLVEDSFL

`Cc1cn(-c2cc(NC(=O)c3ccc(C)c(Nc4nccc(-c5cccnc5)n4)c3)cc(C(F)(F)F)c2)cn1` [NILOTINIB]: the Activity in experiment [1] came out at 56%; in experiment [2] it was 107%; in experiment [3] it was 4%; in experiment [4], 52%; in the experiment filed under Homo sapiens, 75%.
For `Cc1ccc(C(=O)Nc2ccc(CN3Cc4cn[nH]c4C3)c(Cl)c2)cc1C#Cc1cnc2cccnn12`, in that order: 16%, 14%, 14%, 5% and 13%.
